Reference: BindingDB's records for doi:10.1021/jm020951i (Uppsala University, 2003)

Tests used:
Assay in all cases: Enzyme Inhibition Measurements
Plasmepsin I = Plasmepsin I (Plasmodium falciparum, UniProt P39898); details: pH 4.5; 22 °C
Experimental: (§1) Enzyme activities were assayed by monitoring the hydrolysis of substrate in the presence or absence of inhibitor compounds. The hydrolysis was recorded as the increase in fluorescence intensity over a 10 min time period. IC50 values were obtained by assuming competitive inhibition and fitting the dose response data to the equation (Vi/V0) =1/ (1 + [I]/IC50)). The Ki was calculated by using Ki = IC50/ (1 + [S]/Km), and a Km value determined according to Michaelis-Menten.

Plasmepsin II = Plasmepsin II (Plasmodium falciparum (isolate HB3), UniProt P46925); details: pH 4.5; 22 °C
Experimental: as §1

Cathepsin D = Cathepsin D (Homo sapiens, UniProt P07339)
Experimental: as §1

Sequence of Cathepsin D (P07339 65-162 limits assumed): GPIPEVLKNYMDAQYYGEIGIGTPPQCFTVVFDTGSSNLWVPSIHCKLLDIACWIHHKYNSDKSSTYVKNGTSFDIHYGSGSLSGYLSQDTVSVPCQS
Sequence of Cathepsin D (P07339 169-412 limits assumed): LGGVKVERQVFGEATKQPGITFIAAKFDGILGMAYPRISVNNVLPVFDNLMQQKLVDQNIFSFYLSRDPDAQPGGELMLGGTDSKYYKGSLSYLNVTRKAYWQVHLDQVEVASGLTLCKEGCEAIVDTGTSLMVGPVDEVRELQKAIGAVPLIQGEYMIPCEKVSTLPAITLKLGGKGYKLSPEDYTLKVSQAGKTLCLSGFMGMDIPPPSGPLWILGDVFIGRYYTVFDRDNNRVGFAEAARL
Sequence of Plasmepsin I (P39898 whole entry): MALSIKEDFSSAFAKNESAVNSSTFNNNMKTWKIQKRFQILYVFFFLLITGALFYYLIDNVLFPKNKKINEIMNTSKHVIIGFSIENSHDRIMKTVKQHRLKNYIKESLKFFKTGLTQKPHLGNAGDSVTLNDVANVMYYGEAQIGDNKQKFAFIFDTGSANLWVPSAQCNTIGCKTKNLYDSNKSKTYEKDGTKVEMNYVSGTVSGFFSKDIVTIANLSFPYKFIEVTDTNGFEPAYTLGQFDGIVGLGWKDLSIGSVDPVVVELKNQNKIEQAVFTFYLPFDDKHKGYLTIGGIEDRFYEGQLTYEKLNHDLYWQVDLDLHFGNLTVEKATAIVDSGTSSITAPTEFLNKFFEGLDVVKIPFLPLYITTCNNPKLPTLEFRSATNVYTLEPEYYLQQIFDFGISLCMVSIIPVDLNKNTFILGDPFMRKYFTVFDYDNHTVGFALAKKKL
Sequence of Plasmepsin II (P46925 whole entry): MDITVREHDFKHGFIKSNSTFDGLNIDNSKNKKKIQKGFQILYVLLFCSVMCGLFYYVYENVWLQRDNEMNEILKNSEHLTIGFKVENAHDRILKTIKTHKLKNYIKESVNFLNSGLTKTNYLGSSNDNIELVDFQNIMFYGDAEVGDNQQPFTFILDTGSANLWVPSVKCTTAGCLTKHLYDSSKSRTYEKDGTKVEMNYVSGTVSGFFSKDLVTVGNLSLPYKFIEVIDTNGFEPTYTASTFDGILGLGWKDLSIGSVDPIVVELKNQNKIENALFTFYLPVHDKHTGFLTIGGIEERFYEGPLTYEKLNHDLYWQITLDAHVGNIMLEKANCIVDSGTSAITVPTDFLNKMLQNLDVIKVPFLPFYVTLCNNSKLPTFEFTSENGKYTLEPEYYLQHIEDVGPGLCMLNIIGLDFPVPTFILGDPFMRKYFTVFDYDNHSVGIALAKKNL

| SMILES | Ki (Cathepsin D) [µM] | Ki (Plasmepsin I) [µM] | Ki (Plasmepsin II) [µM] |
| --- | --- | --- | --- |
| CC(C)[C@H](NC(=O)c1ccccn1)C(=O)N[C@@H](Cc1ccccc1)[C@@H](O)CN[C@H](Cc1ccccc1)C(N)=O [(2R,5S,6R)-3-Aza-2-benzyl-5-hydroxy-7-phenyl-6-[(picolyl-L-valinyl)amino]heptanoyl Amide] |  | 8 | 3.5 |
| CC(C)C[C@H](NC[C@H](O)[C@H](Cc1ccccc1)NC(=O)[C@@H](NC(=O)c1ccccn1)C(C)C)C(N)=O [(2S)-2-{[(2S,3S)-2-hydroxy-3-[(2S)-3-methyl-2-(pyridin-2-ylformamido)butanamido]-4-phenylbutyl]amino}-4-methylpentanamide] |  | 2.9 | 3.3 |
| CC(C)[C@H](NC(=O)c1ccccn1)C(=O)N[C@@H](Cc1ccccc1)[C@@H](O)CN[C@@H](Cc1ccccc1)C(N)=O [(2S,5S,6R)-3-Aza-2-benzyl-5-hydroxy-7-phenyl-6-[(picolyl-L-valinyl)amino]heptanoyl Amide] |  | 2.1 | 3.2 |

Further lines, with some results ahead:

| Ki (Cathepsin D) [µM] | SMILES | Ki (Plasmepsin I) [µM] | Ki (Plasmepsin II) [µM] |
| --- | --- | --- | --- |
| 1.7 | Cc1ccc(-c2ccc(C[C@H](NC[C@H](O)[C@H](Cc3ccccc3)NC(=O)[C@@H](NC(=O)c3ccccn3)C(C)C)C(N)=O)cc2)cc1 [(2S)-N-[(2S,3S)-4-{[(1S)-1-carbamoyl-2-[4-(4-methylphenyl)phenyl]ethyl]amino}-3-hydroxy-1-phenylbutan-2-yl]-3-methyl-2-(pyridin-2-ylformamido)butanamide] |  |  |
| 1 | CC(C)[C@H](NC(=O)c1ccccn1)C(=O)N[C@@H](Cc1ccccc1)[C@@H](O)CN[C@@H](Cc1ccc(-c2cccc(N)c2)cc1)C(N)=O [(2S,5S,6R)-3-Aza-2-[p-(m-aminophenyl)benzyl]-5-hydroxy-7-phenyl-6-[(picolyl-L-valinyl)amino]heptanoyl Amide] |  |  |
| 1.7 | COc1ccccc1-c1ccc(C[C@H](NC[C@H](O)[C@H](Cc2ccccc2)NC(=O)[C@@H](NC(=O)c2ccccn2)C(C)C)C(N)=O)cc1 [(2S,5S,6R)-3-Aza-5-hydroxy-2-[p-(o-methoxyphenyl)-benzyl]-7-phenyl-6-[(picolyl-L-valinyl)amino]heptanoyl Amide] |  |  |
